Key:
Type in all cases: cell-based
[1] = biological target: T1, human cloned CHRM5 receptor (M5_CHO) (Homo sapiens, UniProt P08912); assay: CHRM5 Ca++ Flux Assay (agonist mode, FDSS 7000EX); settings: for M5 FDSS PA: Percent Activity measured to EC100 of Carbachol; for EC50: agonist mode, geometric mean if tested more than once, read-out: M5 FDSS EC50
T1 construct: expressed in transfected cells; host or cells: CHO (M5_CHO)
T1 sequence (P08912 1-532): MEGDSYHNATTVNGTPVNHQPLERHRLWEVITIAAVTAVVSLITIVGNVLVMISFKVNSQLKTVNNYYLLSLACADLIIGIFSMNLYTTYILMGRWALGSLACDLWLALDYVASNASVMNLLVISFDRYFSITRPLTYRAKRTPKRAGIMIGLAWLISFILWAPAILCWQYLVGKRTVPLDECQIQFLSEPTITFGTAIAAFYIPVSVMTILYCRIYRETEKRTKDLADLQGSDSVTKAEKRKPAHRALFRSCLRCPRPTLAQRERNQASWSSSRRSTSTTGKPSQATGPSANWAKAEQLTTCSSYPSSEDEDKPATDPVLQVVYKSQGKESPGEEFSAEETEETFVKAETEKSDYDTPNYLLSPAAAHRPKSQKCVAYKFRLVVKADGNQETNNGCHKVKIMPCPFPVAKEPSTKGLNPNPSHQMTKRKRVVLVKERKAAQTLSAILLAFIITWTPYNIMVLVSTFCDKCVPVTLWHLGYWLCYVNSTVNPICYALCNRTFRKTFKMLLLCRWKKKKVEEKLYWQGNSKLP
Outline: (§1)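 CHO-K1 cells stably expressing human M3 or M5 receptor were dye-loaded for at least 1 h in HBSS with 20 mM HEPES and 2.5 mM probenecid, then given 11-point compound doses in triplicate.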

[2] = biological target: T2, human cloned CHRM3 receptor (M3_CHO cells) (Homo sapiens, UniProt P20309); assay: CHRM3 Ca++ Flux Assay (agonist mode, FDSS 7000EX); settings: for M3 FDSS PA: Percent Activity measured to EC100 of Carbachol; for EC50: agonist mode, geometric mean if tested more than once, read-out: M3 FDSS EC50
T2 construct: expressed in transfected cells; host or cells: CHO-K1
Outline: as §1

[3] = biological target: T3, human cloned CHRM4 receptor (M4_CHO cells) (Homo sapiens, UniProt P08173); assay: CHRM4 Ca++ Flux Assay (agonist mode, FDSS 7000EX); settings: for M4 FDSS PA: Percent Activity; for EC50: geometric mean if tested more than once, read-out: M4 FDSS EC50
T3 construct: expressed in transfected cells; host or cells: CHO-K1
T3 sequence (P08173 1-479): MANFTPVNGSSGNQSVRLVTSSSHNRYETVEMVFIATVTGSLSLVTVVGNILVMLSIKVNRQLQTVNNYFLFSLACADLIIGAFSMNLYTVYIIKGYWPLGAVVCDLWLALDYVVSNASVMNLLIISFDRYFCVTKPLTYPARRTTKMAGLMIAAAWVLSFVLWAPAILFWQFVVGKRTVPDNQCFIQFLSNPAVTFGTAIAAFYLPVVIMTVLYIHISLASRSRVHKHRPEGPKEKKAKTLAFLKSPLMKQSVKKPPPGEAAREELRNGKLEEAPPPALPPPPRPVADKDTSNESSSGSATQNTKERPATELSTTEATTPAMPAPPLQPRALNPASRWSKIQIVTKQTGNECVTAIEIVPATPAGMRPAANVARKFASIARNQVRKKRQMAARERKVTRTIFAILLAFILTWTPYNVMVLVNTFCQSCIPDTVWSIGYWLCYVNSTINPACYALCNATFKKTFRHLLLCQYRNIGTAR
Outline: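 M4_CHO cells loaded with a Ca++ dye for at least 1 h were held 60 min at room temperature in HEPES/probenecid buffer with 20 μM ATP. Ca++ flux after an 11-point compound dose, in triplicate and agonist mode, was recorded over 3 min. Four-parameter fits gave curves, with activity expressed relative to the Carbachol EC100.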

T2 sequence (P20309 whole entry): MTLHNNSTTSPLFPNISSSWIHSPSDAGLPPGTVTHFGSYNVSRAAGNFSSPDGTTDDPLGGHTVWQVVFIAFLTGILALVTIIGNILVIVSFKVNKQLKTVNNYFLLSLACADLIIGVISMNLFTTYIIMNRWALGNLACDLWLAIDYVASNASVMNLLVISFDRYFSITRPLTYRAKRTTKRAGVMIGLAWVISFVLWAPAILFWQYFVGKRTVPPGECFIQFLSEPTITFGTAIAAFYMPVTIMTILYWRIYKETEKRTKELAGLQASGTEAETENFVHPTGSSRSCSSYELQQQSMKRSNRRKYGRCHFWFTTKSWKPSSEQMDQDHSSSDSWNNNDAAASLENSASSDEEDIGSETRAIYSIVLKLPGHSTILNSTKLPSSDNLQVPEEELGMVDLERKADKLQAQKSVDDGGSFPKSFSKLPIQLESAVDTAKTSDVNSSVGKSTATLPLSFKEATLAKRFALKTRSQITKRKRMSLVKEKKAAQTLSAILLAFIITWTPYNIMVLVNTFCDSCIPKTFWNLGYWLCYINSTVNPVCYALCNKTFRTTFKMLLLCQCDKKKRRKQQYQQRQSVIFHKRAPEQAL

Row | M5 FDSS PA [1] [%] | EC50 [1] [µM] | M3 FDSS PA [2] [%] | EC50 [2] [µM] | M4 FDSS PA [3] [%] | EC50 [3] [µM] | SMILES
1 | 0 | > 25 | 0 | > 25 | 60 | 0.005 | Fc1cncc(N2CC3(CC[C@@H](N4CCC(c5cc(F)ccc5OC5CCOCC5)CC4)C3)C2)c1 (single isomer, unassigned) [Example 10A, (R)-6-(4-(5-fluoro-2-((tetrahydro-2H-pyran-4-yl)oxy)phenyl)piperidin-1-yl)-2-(5-fluoropyridin-3-yl)-2-azaspiro[3.4]octane or (S)-6-(4-(5-fluoro-2-((tetrahydro-2H-pyran-4-yl)oxy)phenyl)piperidin-1-yl)-2-(5-fluoropyridin-3-yl)-2-azaspiro[3.4]octane]
2 | 0 | > 25 | 0 | > 25 | 50 | 0.025 | Fc1ccc(C2CCOCC2)c(C2CCN([C@@H]3CCC4(C3)CN(c3cncnc3)C4)CC2)c1 (single isomer, unassigned) [Example 10D, (R)-6-(4-(5-fluoro-2-(tetrahydro-2H-pyran-4-yl)phenyl)piperidin-1-yl)-2-(pyrimidin-5-yl)-2-azaspiro[3.4]octane or (S)-6-(4-(5-fluoro-2-(tetrahydro-2H-pyran-4-yl)phenyl)piperidin-1-yl)-2-(pyrimidin-5-yl)-2-azaspiro[3.4]octane]
3 | 0 | > 25 | 0 | > 25 | 59 | 0.027 | Fc1ccc(OC2CC3(COC3)C2)c(C2CCN([C@@H]3CCC4(C3)CN(c3cncnc3)C4)CC2)c1 (single isomer, unassigned) [Example 10E, (R)-6-(4-(2-((2-oxaspiro[3.3]heptan-6-yl)oxy)-5-fluorophenyl)piperidin-1-yl)-2-(pyrimidin-5-yl)-2-azaspiro[3.4]octane or (S)-6-(4-(2-((2-oxaspiro[3.3]heptan-6-yl)oxy)-5-fluorophenyl)piperidin-1-yl)-2-(pyrimidin-5-yl)-2-azaspiro[3.4]octane]

Continued, molecule first:

Row | SMILES | M5 FDSS PA [1] [%] | EC50 [1] [µM] | M3 FDSS PA [2] [%] | EC50 [2] [µM] | M4 FDSS PA [3] [%] | EC50 [3] [µM]
4 | O=C(N1CC2(CC[C@@H](N3CCC(c4cc(F)ccc4C4CCOCC4)CC3)C2)C1)C1(F)CC1 (single isomer, unassigned) [Example 9L, (R)-(6-(4-(5-fluoro-2-(tetrahydro-2H-pyran-4-yl)phenyl)piperidin-1-yl)-2-azaspiro[3.4]octan-2-yl)(1-fluorocyclopropyl)methanone or (S)-(6-(4-(5-fluoro-2-(tetrahydro-2H-pyran-4-yl)phenyl)piperidin-1-yl)-2-azaspiro[3.4]octan-2-yl)(1-fluorocyclopropyl)methanone] | 0 | > 25 | 0 | > 25 | 49 | 0.026
5 | Fc1cncc(N2CC3(CC[C@@H](N4CCC(c5cc(F)ccc5OC5CCOCC5)CC4)C3)C2)c1 (single isomer, unassigned) [Example 10B, (R)-6-(4-(5-fluoro-2-((tetrahydro-2H-pyran-4-yl)oxy)phenyl)piperidin-1-yl)-2-(5-fluoropyridin-3-yl)-2-azaspiro[3.4]octane or (S)-6-(4-(5-fluoro-2-((tetrahydro-2H-pyran-4-yl)oxy)phenyl)piperidin-1-yl)-2-(5-fluoropyridin-3-yl)-2-azaspiro[3.4]octane] | 0 | > 25 | 0 | > 25 | 41 | 0.045
6 | Fc1ccc(C2CCOCC2)c(C2CCN([C@@H]3CCC4(C3)CN(c3cncnc3)C4)CC2)c1 (single isomer, unassigned) [Example 10C, (R)-6-(4-(5-fluoro-2-(tetrahydro-2H-pyran-4-yl)phenyl)piperidin-1-yl)-2-(pyrimidin-5-yl)-2-azaspiro[3.4]octane or (S)-6-(4-(5-fluoro-2-(tetrahydro-2H-pyran-4-yl)phenyl)piperidin-1-yl)-2-(pyrimidin-5-yl)-2-azaspiro[3.4]octane] | 0 | > 25 | 0 | > 25 | 62 | < 0.0004
7 | Fc1ccc(OC2CC3(COC3)C2)c(C2CCN([C@@H]3CCC4(C3)CN(c3cncnc3)C4)CC2)c1 (single isomer, unassigned) [Example 10F, (R)-6-(4-(2-((2-oxaspiro[3.3]heptan-6-yl)oxy)-5-fluorophenyl)piperidin-1-yl)-2-(pyrimidin-5-yl)-2-azaspiro[3.4]octane or (S)-6-(4-(2-((2-oxaspiro[3.3]heptan-6-yl)oxy)-5-fluorophenyl)piperidin-1-yl)-2-(pyrimidin-5-yl)-2-azaspiro[3.4]octane] | 0 | > 25 | 0 | > 25 | 71 | 0.0047
8 | Fc1ccc(OC2CCOCC2)c(C2CCN([C@@H]3CCC4(C3)CN(c3cncnc3)C4)CC2)c1 (single isomer, unassigned) [Example 10G, (R)-6-(4-(5-fluoro-2-((tetrahydro-2H-pyran-4-yl)oxy)phenyl)piperidin-1-yl)-2-(pyrimidin-5-yl)-2-azaspiro[3.4]octane or (S)-6-(4-(5-fluoro-2-((tetrahydro-2H-pyran-4-yl)oxy)phenyl)piperidin-1-yl)-2-(pyrimidin-5-yl)-2-azaspiro[3.4]octane] | 0 | > 25 | 0 | > 25 | 56 | 0.005
9 | Fc1ccc(OC2CCOCC2)c(C2CCN([C@@H]3CCC4(C3)CN(c3cncnc3)C4)CC2)c1 (single isomer, unassigned) [Example 10H, (R)-6-(4-(5-fluoro-2-((tetrahydro-2H-pyran-4-yl)oxy)phenyl)piperidin-1-yl)-2-(pyrimidin-5-yl)-2-azaspiro[3.4]octane or (S)-6-(4-(5-fluoro-2-((tetrahydro-2H-pyran-4-yl)oxy)phenyl)piperidin-1-yl)-2-(pyrimidin-5-yl)-2-azaspiro[3.4]octane] | 0 | > 25 | 0 | > 25 | 51 | 0.019
10 | COc1ccccc1C1CCN([C@H]2CCC3(C2)CN(c2ncco2)C3)CC1 (single isomer, unassigned) [Example 10I, S)-2-(6-(4-(2-methoxyphenyl)piperidin-1-yl)-2-azaspiro[3.4]octan-2-yl)oxazole or (R)-2-(6-(4-(2-methoxyphenyl)piperidin-1-yl)-2-azaspiro[3.4]octan-2-yl)oxazole] | 0 | > 25 | 0 | > 25 | 17 | 1.07
11 | COc1ccccc1C1CCN([C@H]2CCC3(C2)CN(c2ncco2)C3)CC1 (single isomer, unassigned) [Example 10J, (S)-2-(6-(4-(2-methoxyphenyl)piperidin-1-yl)-2-azaspiro[3.4]octan-2-yl)oxazole or (R)-2-(6-(4-(2-methoxyphenyl)piperidin-1-yl)-2-azaspiro[3.4]octan-2-yl)oxazole] | 0 | 14.1 | 0 | > 25 | 67 | 0.001
